From patent publication US20100297020A1, “PHOSPHORYLATED AND PHOSPHONATED PYRONE ANALOGS FOR THERAPEUTIC TREATMENT” (Limerick Biopharma, Inc., priority 2008, published 2010)
“Also recorded” adds a separate entry of the source.

Key:
[1] = test system: male ZDF rats; assay: 4 week study in ZDF rats (compound 2, compound 3); type: in vivo
Source text: Seven week old male ZDF rats are used for the study.
Experimental Design: This study is a 4 week study Using 32 7-week old male ZDF rats, divided into 4 treatment arms (8 rats/arm).

[2] = test system: ZDF rats; assay: Oral glucose tolerance test (OGTT) in ZDF rats after the 4 week study; type: in vivo; conditions: glucose 2 g/Kg PO
Method: Following the 4 week study described in Example 26 above, the animals were fasted for 12 hours and on day-29, pre-drug blood samples are collected and glucose level and insulin level are measured. The animals are treated intraperitoneally (i.p.) with the following compounds:
Thirty (30) minutes after the treatment, pre-glucose blood samples are collected and the animals are then dosed with glucose (2 g/Kg, PO). Tail vein blood samples are collected at 30, 60, 90 and 120 minutes. Glucose levela and insulin leveal are measured. FIG. 31 show the plasma glucose level measured during OGTT. […] FIG. 32 show the plasma insulin level measured during OGTT. Phosphonated pyrone analogs raise insulin output in response to OGTT.

[3] = test system: BB19 cells, human BCECs (brain capillary endothelial cells); assay: Tacrolimus uptake assay; type: cell-based; conditions: Endothelial cell, 1 h, 0.1 μM test compound, 1 hour incubation, 3H-tacrolimus 34 nM, read-out: cell associated ^3H-tacrolimus uptake, % of control
Method: (§1) BB19 cells, human BCECs (brain capillary endothelial cells) immortalized with the E6E7 genes of human papilloma virus, were kindly provided from Jacques G. Prudhomme, Department of Biology, University of California, Riverside, U.S.A. The cells were cultured as monolayer culture in Amniomax™-C100 basal medium (catalog number 17001-157) with Amniomax™-C100 supplement (catalog number 12556-049) (Invitrogen, Basel, CH).
(§2) Cells were seeded onto culture surfaces precoated with 10 μg/cm^2 rat tail collagen type I (BD Bioscience, Allschwil, CH) at a density of approximately 50′000 cells/cm^2 and were cultured in an incubator at 37° C. with 5% CO2, 95% fresh air and saturated humidity. For uptake assays, cells were seeded on precoated 96-well plates. Assays were performed at confluency, after 6 days in culture.
(§3) BB19 cells were seeded 50′000 cells/cm^2 on 96-well plates (Falcon) and incubated under condition described above for 6 days. Before starting the assay, cells were washed 2 times with pre-warmed Dulbecco's MEM with Glutamax-I (catalog number 61965) (Invitrogen AG, Basel, CH), supplemented with 1% non essential amino acids, 1% sodium pyruvate, 50 μg/ml gentamycin (Invitrogen AG) (DMEM). Cells were then incubated for 15 min at 37° C. and 120 rpm in DMEM with or without the specified concentrations of test compounds under investigation. After this pre-incubation, cells were incubated in DMEM containing [propyl-3H]-dihydro-FK506 (3H-tacrolimus, 1 μCi/ml, 34 nM) and with or without the specified concentrations of test compounds for 1 hour at 37° C. and 120 rpm. During this 1-hour incubation period, influx and efflux of the substrate, ^3H-tacrolimus, occur. After the 1-hour incubation period, assay was terminated by placing the assay plate on ice and washing the cells twice with ice-cold DMEM. Determination of cell associated ^3H-tacrolimus was performed by addition of Insta Gel and scintillation liquid to trypsinized cells followed by analysis on a scintillation counter (Packard TriCarb2000, Can berra Packard S.A.). The results are expressed as: % of control=100×[^3H-tacrolimus conc. with test compound]/[^3H-tacrolimus conc. with vehicle]

[4] = test system: male db/db mice; assay: 4-week study in db/db mice; type: in vivo
Source text: The animals are maintained (starting at 7-week old) on a 12-hr light and 12-hr dark cycle, and provided with commercial rodent chow, LabDiet® 5K52, and water ad libitum.

[5] = test system: BB19 cells, human BCECs (brain capillary endothelial cells); assay: Cyclosporin uptake assay; type: cell-based; conditions: 0.1 μM test compound; 1 hour incubation
Method: as §1, §2, §3
The cyclosporin uptake assay was performed similarly as described above for tacrolimus uptake assay except that ^3H-cyclosporin was used in place of ^3H-tacrolimus.

[6] = test system: ZDF rats; assay: Pancreas histopathology, insulin staining and TUNEL in ZDF rats; type: in vivo; conditions: following four weeks of daily treatment
Source text: Pancreas samples from Example 26 are stored in 10% NBF and used in this study. All tissue samples were processed through graded alcohols, cleared in xylene and infiltrated and embedded into paraffin. For the pancreas four 4 micron sections were cut, one was stained with Hematoxylin and Eosin for histopathology, two were immunohistochemically stained with an antibody to insulin to determine beta cell mass and one was stained for apoptosis with the tunel technique.
The insulin staining procedure was performed as follows: Endogenous peroxidase activity was inhibited by incubation in 3% hydrogen peroxide. Non-specific staining was blocked with DAKO Protein Block Serum-Free (Dako, Carpinteria, Calif.). Insulin positive cells were immunohistochemically stained with a polyclonal guinea pig anti-swine insulin antibody at room temperature for 30 minutes (Dako, Carpinteria, Calif.). After incubation with primary antibody, the tissue sections were sequentially incubated with Envision+ HRP Rabbit (Dako, Carpinteria, Calif.). Staining was developed with Liquid DAB+ (Dako, Carpinteria, Calif.) and counterstained with hematoxylin.
Pancreas samples were stained for apoptosis as follows: 4 micron sections were cut and stained for TUNEL utilizing the following kit In Situ Cell Death Detection Kit, AP (Roche Applied Science, catalog 11 684 809 910).

[7] = test system: diet-induced obese mice (C57Bl/6, 60% high fat diet); assay: Diet induced obese mice: IP-GTT and hyperinsulinemic euglycemic clamp; type: in vivo; conditions: 10 mg/kg I.P. daily
Method: Twenty-three (23) week old C57Bl/6 mice are placed on 60% high fat diet (HFD). After 9 weeks of HFD, mice are injected daily with either vehicle (PBS/NaCO3) or fisetin-3-O-methylphosphonate (compound 3) at a dosage of 10 mg/kg delivered via I.P. injection. HFD is continued throughout the injection period. After 2 weeks (week 10 and 11) of injection, mice are tested for basal blood (non-fasted) glucose levels by tail blood withdrawal. After 3 weeks (week 12) of injection, IP glucose tolerance test (IP-GTT) is performed at a dose of 1 gm dextrose per kilogram body weight. After 4 weeks (week 13) of injection, cannulation surgery is performed on anesthetized mice. Mice are allowed to recover 6 days. After 6 days, hyperinsulinemic euglycemic clamp studies are performed on the mice. After 7 weeks (week 16) of injections, a second IP-GTT is performed on the mice. Three days after the second IP-GTT, mice are sacrificed and blood and tissue samples are collected for further analysis.

[8] = test system: male C57BL/6 mice; assay: Plasma and liver triglyceride in C57BL/6 mice; type: in vivo
Method: Experimental Design: This study is a 2-week study conducted with male C57BL/6 mice (24 animals, 3 treatment arms, 8 rats/arm) 9-week old at the start of compound treatment. The animals are maintained (starting at 8-week old) on a 12-hr light and 12-hr dark cycle, and provided with commercial rodent chow Purina 5001 and water ad libitum.
The stock solution of vehicle (HCO-60) is composed of 200 mg of HCO-60 per mL of 80% alcohol. Vehicle is prepared by diluting the HCO-60 stock solution 1:10 with saline. Compound 3 stock solutions are prepared in HCO-60 stock solution and diluted with saline or vehicle to the appropriate dose concentration.
Tail-vein-blood samples are collected from each rat 24 hour after the last treatment (day-14) for plasma triglyceride determination. Animals are sacrificed to obtain liver for triglyceride determination.

[9] = is known to be; cited from earlier work

## O=c1c(OCP(=O)(O)O)c(-c2ccc(O)c(O)c2)oc2cc(O)ccc12 [Compound 3, Fisetin-3-O-methylphosphonic acid]
[1]; 4 weeks daily i.p., compared to vehicle treated animals
  plasma insulin levels: require lower insulin levels to maintain nomal glucose levels
[1]; 4 weeks daily i.p., compound 2 100 mg/kg, compound 3 100 mg/kg day 4 and 5, 50 mg/kg day 6-28, rosiglitazone 6 mg/kg
  plasma glucose levels: maintains steady glucose levels
[1]; compared to vehicle treated animals
  glycated hemoglobin levels (% HbA1c) at termination: lower glycated hemoglobin levels
[1]; day 14 and day 21, over vehicle controls
  triglycerides: marked decreases in triglycerides
[2]
  plasma insulin level during OGTT: raises insulin output
[2]; compound 2 100 mg/kg, compound 3 50 mg/kg i.p.
  plasma glucose level during OGTT: protect against hyperglycemia
[3]
  activity at 0.1 µM: 44%
[4]; 4 weeks of daily treatment
  body weights: essentially identical that of vehicle treated animals
[4]; compound 3 10 mg/kg daily i.p.
  liver triglyceride at sacrifice (day-29): significantly lower than vehicle treated mice
  plasma cholesterol levels on Day-28: significantly lower than vehicle or rosiglitazone treated mice
  plasma triglyceride levels on Day-28: significantly lower than vehicle or rosiglitazone treated mice
[4]; daily i.p., compound 3 30 and 10 mg/kg, rosiglitazone 10 mg/kg
  plasma glucose level on Day-28: lower than vehicle treated control mice
[5]
  cell associated ^3H-cyclosporin uptake, % of control: 71 % of control
[6]; TUNEL
  islet cell apoptosis: decreases in islet cell apoptosis
[6]
  decrease in islet vacuolar degeneration (inhibition): 43%
  decrease in pancreatic inflammation (inhibition): 35%
[7]
  basal glucose: reduces basal glucose
  hepatic glucose output: impacts hepatic glucose output; also recorded: reduces hepatic glucose output
  insulin output in response to glucose challenge: less insulin output is required
  tissue glucose uptake during hyperinsulinemic euglycemic clamp: enhances tissue glucose uptake
[7]; IP-GTT 1 gm dextrose per kilogram
  response to IP glucose challenge: improves response to glucose challenge
[8]; 30 mg/kg daily i.p. for 13 days, compared to vehicle
  liver triglyceride: significantly reduces liver triglyceride
[8]; daily i.p. for 13 days, 30 and 3 mg/kg
  plasma triglyceride: reduces plasma triglyceride

## O=c1c(O)c(-c2ccc(O)c(O)c2)oc2cc(O)cc(O)c12 [quercetin aglycone, quercetin]
[9]
  serum half-life: 19 to 25 h
